Where “and” joins values, the source holds several entries; their conditions need not be identical. Equal values may be shown once. Read-outs that look alike come from different tables or passages of the source.
Assays:
[1] = biological target: T1, PS2-complex (WT PS2-containing γ-secretase) (Homo sapiens, UniProt P49810); assay: in vitro cleavage assay, Aβ40 production by AlphaLISA; type: biochemical; conditions: for remaining activity at 0.002 µM / remaining activity at 0.01 µM / remaining activity at 0.04 µM / remaining activity at 0.2 µM / remaining activity at 1 µM / remaining activity at 10 µM: 4 h; for remaining activity at 0.002 µM / remaining activity at 0.01 µM / remaining activity at 0.04 µM / remaining activity at 0.2 µM / remaining activity at 1 µM / remaining activity at 10 µM / Caculated Aβ40 production / raw data from α-Lisa reading: PS2 WT
T1 construct: made in house; host or cells: mammalian cells (HEK293F is stated for the cryo-EM samples)
Experimental: (§1) The PS1- or PS2 complexes were expressed and purified as described. To validate the inhibitory effect of MRK-560 (Fig. 1a), we reconstituted an in vitro cleavage assay using the purified PS1- or PS2 complexes. Production of Aβ40, which is the major cleavage product among the varying lengths of Aβs, and AICD, whose cleavage reflects the endopeptidase activity of γ-secretase, are measured with AlphaLISA and western blots, respectively. All proteins used for the activity assay were sub-cloned, expressed and purified as described. Protein concentration was determined using the Bradford method. […] The cleavage reaction was conducted at 37 °C for 4 h. The cleaved products of these substrates were detected using a monoclonal antibody (1:1000 dilution, CW0299, CWBio) against the C-terminal Myc tag. Aβ40 production was detected using the AlphaLISA assay (PerkinElmer) as described. The IC50 values and the inhibition curves were calculated using Prism 8.0. Statistical analysis of Aβ40 was performed using Prism 8 (GraphPad Software, San Diego, CA, USA). IC50 were determined by a four-parameter logistic regression. The statistical details can be found in Figs. 1, 4 and legends. Data are expressed as mean ± SD.

[2] = biological target: T2, PS1-complex (WT PS1-containing γ-secretase) (Homo sapiens, UniProt P49768); assay: as above; type: biochemical; conditions: for remaining activity at 0.002 µM / remaining activity at 0.01 µM / remaining activity at 0.04 µM / remaining activity at 0.2 µM / remaining activity at 1 µM / remaining activity at 10 µM: 4 h
T2 construct: made in house; host or cells: mammalian cells (HEK293F is stated for the cryo-EM samples)
Experimental: as §1

[3] = PS1 WT, MRK-560 2 nM, replicates
[4] = PS1 WT, MRK-560 10 nM, replicates
[5] = PS1 WT, MRK-560 40 nM, replicates
[6] = PS1 WT, MRK-560 200 nM, replicates
[7] = PS1 WT, MRK-560 1 μM, replicates
[8] = PS1 WT, MRK-560 10 μM, replicates

remaining activity at 0.002 µM ([1]; MRK-560 2 nM, mean of 3 replicates, read-out: Normalized production (control=1), Mean): 98.5%
remaining activity at 0.002 µM ([1]; MRK-560 2 nM, replicates, read-out: Normalized production (control=1)): 96.8%
remaining activity at 0.01 µM ([1]; MRK-560 10 nM, mean of 3 replicates, read-out: Normalized production (control=1), Mean): 93.7%
remaining activity at 0.01 µM ([1]; MRK-560 10 nM, replicates, read-out: Normalized production (control=1)): 96.7%
remaining activity at 0.04 µM ([1]; MRK-560 40 nM, mean of 3 replicates, read-out: Normalized production (control=1), Mean): 94.4%
remaining activity at 0.04 µM ([1]; MRK-560 40 nM, replicates, read-out: Normalized production (control=1)): 92.8%
remaining activity at 0.2 µM ([1]; MRK-560 200 nM, mean of 3 replicates, read-out: Normalized production (control=1), Mean): 44.1%
remaining activity at 0.2 µM ([1]; MRK-560 200 nM, replicates, read-out: Normalized production (control=1)): 43.5%
remaining activity at 1 µM ([1]; MRK-560 1 μM, mean of 3 replicates, read-out: Normalized production (control=1), Mean): 9.52%
remaining activity at 1 µM ([1]; MRK-560 1 μM, replicates, read-out: Normalized production (control=1)): 8.72%
remaining activity at 10 µM ([1]; MRK-560 10 μM, mean of 3 replicates, read-out: Normalized production (control=1), Mean): 6.39%
remaining activity at 10 µM ([1]; MRK-560 10 μM, replicates, read-out: Normalized production (control=1)): 6.67%
IC50 ([1]; PS2-complex WT, mean ± SD, n=3): 173 ± 24 nM
Caculated Aβ40 production ([1]; MRK-560 2 nM, replicates): 178.2729 and 172.6848 and 175.9467
raw data from α-Lisa reading ([1]; MRK-560 2 nM, replicates): 27903 and 28403 and 28759
Caculated Aβ40 production ([1]; MRK-560 10 nM, replicates): 177.3643 and 172.5675 and 151.3305
raw data from α-Lisa reading ([1]; MRK-560 10 nM, replicates): 27885 and 24607 and 28620
Caculated Aβ40 production ([1]; MRK-560 40 nM, replicates): 171.4208 and 165.5620 and 168.4662
raw data from α-Lisa reading ([1]; MRK-560 40 nM, replicates): 26808 and 27255 and 27709
Caculated Aβ40 production ([1]; MRK-560 200 nM, replicates): 82.1115 and 77.5422 and 76.1780
raw data from α-Lisa reading ([1]; MRK-560 200 nM, replicates): 12906 and 12685 and 13645
Caculated Aβ40 production ([1]; MRK-560 1 μM, replicates): 17.8069 and 15.5539 and 17.5803
raw data from α-Lisa reading ([1]; MRK-560 1 μM, replicates): 2685 and 3025 and 3063
Caculated Aβ40 production ([1]; MRK-560 10 μM, replicates): 12.9409 and 11.9064 and 9.3762
raw data from α-Lisa reading ([1]; MRK-560 10 μM, replicates): 2072 and 1646 and 2246
remaining activity at 0.002 µM ([2]; PS1 WT, MRK-560 2 nM, mean of 3 replicates, read-out: Normalized production (control=1), Mean): 101%
remaining activity at 0.002 µM ([2]; PS1 WT, MRK-560 2 nM, replicates, read-out: Normalized production (control=1)): 102%
remaining activity at 0.01 µM ([2]; PS1 WT, MRK-560 10 nM, mean of 3 replicates, read-out: Normalized production (control=1), Mean): 92.4%
remaining activity at 0.01 µM ([2]; PS1 WT, MRK-560 10 nM, replicates, read-out: Normalized production (control=1)): 90.9%
remaining activity at 0.04 µM ([2]; PS1 WT, MRK-560 40 nM, mean of 3 replicates, read-out: Normalized production (control=1), Mean): 43.2%
remaining activity at 0.04 µM ([2]; PS1 WT, MRK-560 40 nM, replicates, read-out: Normalized production (control=1)): 43.4%
remaining activity at 0.2 µM ([2]; PS1 WT, MRK-560 200 nM, mean of 3 replicates, read-out: Normalized production (control=1), Mean): 8.2%
remaining activity at 0.2 µM ([2]; PS1 WT, MRK-560 200 nM, replicates, read-out: Normalized production (control=1)): 8.25%
remaining activity at 1 µM ([2]; PS1 WT, MRK-560 1 μM, mean of 3 replicates, read-out: Normalized production (control=1), Mean): 0.63%
remaining activity at 1 µM ([2]; PS1 WT, MRK-560 1 μM, replicates, read-out: Normalized production (control=1)): 0.63%
remaining activity at 10 µM ([2]; PS1 WT, MRK-560 10 μM, mean of 3 replicates, read-out: Normalized production (control=1), Mean): 0.52%
remaining activity at 10 µM ([2]; PS1 WT, MRK-560 10 μM, replicates, read-out: Normalized production (control=1)): 0.46%
IC50 ([2]; PS1-complex WT, mean ± SD, n=3): 33 ± 2 nM
Caculated Aβ40 production [2, 3]: 346.0052 and 350.2238 and 339.9166
raw data from α-Lisa reading [2, 3]: 53851 and 52412 and 53263
Caculated Aβ40 production [2, 4]: 325.7701 and 311.5896 and 312.3355
raw data from α-Lisa reading [2, 4]: 48416 and 48522 and 50424
Caculated Aβ40 production [2, 5]: 146.9566 and 148.7756 and 148.6084
raw data from α-Lisa reading [2, 5]: 24210 and 24184 and 23927
Caculated Aβ40 production [2, 6]: 26.7052 and 28.2767 and 29.2852
raw data from α-Lisa reading [2, 6]: 4813 and 4981 and 4551
Caculated Aβ40 production [2, 7]: 2.1627 and 2.1745 and 2.1272
raw data from α-Lisa reading [2, 7]: 430 and 422 and 428
Caculated Aβ40 production [2, 8]: 1.8967 and 1.5777 and 1.8849
Normalized production (control=1) [2, 8]: 0.0055
raw data from α-Lisa reading [2, 8]: 329 and 381 and 383
SMILES: O=S(=O)(NC1CCC(c2cc(F)ccc2F)(S(=O)(=O)c2ccc(Cl)cc2)CC1)C(F)(F)F (stereo not drawn) [MRK-560, N-[cis-4-[(4-chlorophenyl)sulfonyl]-4-(2,5-difluorophenyl)cyclohexyl]-1,1,1-trifluoromethanesulfonamide]
